Assay results reported in patent publication US20230094843A1, “PHARMACEUTICAL COMBINATION FOR TREATING TUMORS AND APPLICATION THEREOF” (FUKANG (SHANGHAI) HEALTH TECHNOLOGY CO., LTD, priority 2019, published 2023).
Values belong to the compound of their own block, whether it stands above or below them.

How the values were obtained:
[1] = system: human-derived CD45+ cells (hCD45 cells); experiment: FACS assay of hCD45 in peripheral blood 3 weeks after PBMC grafting; type: in vivo, Mus Musculus, NCG; details: FIG. 4
Protocol: Three weeks after PBMC grafting, peripheral blood of the mice was collected, and the proportion of human-derived CD45^+ cells (hCD45 cells) therein was determined by flow cytometry (FACS). After the end of study, the tumors was removed, weighed and photographed.

[2] = cited from earlier work
Water solubility = type: physicochemical; details: times higher than that of olaparib
MDA-MB-436 tumor cells = experiment: PBMC humanized MDA-MB-436 subcutaneous tumor grafting model, tumor growth inhibition; type: in vivo, Mus Musculus, NCG; details: for Tumor growth inhibition (%): PG-D24, TGI=(1-T/C)x100% from relative tumor volume, mefuparib HCl 40 mg/kg p.o., Tuoyi 10 mg/kg i.p.; for Tumor volume, Grouping (PG-D0): at grouping, start of treatment, mefuparib HCl 40 mg/kg p.o. qod, Tuoyi 10 mg/kg i.p. q4d; for Tumor volume, Administration (PG-D24): day 24 after grouping, mefuparib HCl 40 mg/kg p.o. qod x 13, Tuoyi 10 mg/kg i.p. q4d x 7
Protocol: Species: Mus Musculus, NCG (NOD-Prkdc^em26Cd52II2rg^em26Cd22/N ju), female; weight: 18-22 g; quantity: 55; supplier: GemPharmatech.
MDA-MB-436 tumor cells (YK-CL-075) were purchased from ATCC. The tumor cells were cultured in the Leibovitz's L-15 medium containing inactivated 10% fetal bovine serum, 100 U/mL of penicillin and 100 μg/mL of streptomycin in a 37° C./5% CO2 incubator, and were passaged every 3 to 4 days when the cells were overgrown. The tumor cells in logarithmic phase were used for in vivo tumor grafting.
PBMCs (human peripheral blood mononuclear cells) were purchased from […] (Donor#: A0075).
MDA-MB-436 tumor cells were resuspended in a 1:1 (v:v) mixture of PBS and Matrigel at a concentration of 1×10^8 cells/mL, and were grafted subcutaneously at the right flank of mice at 100 μL/mouse. When the tumor grew to about 1000 mm^3, the tumors were aseptically removed and cut into small pieces having dimensions of about 2 mm×2 mm×2 mm, which were grafted subcutaneously at the right flank of experimental animals. After 2 weeks, PBMCs were resuspended in PBS and grafted into mice in an amount of 2×10^6 cells/mouse. The animals were divided into 4 groups of 10 and treated (the day was recorded as PG-D0) when the tumor grew to about 93 mm^3.
The long and short diameters of the tumor were measured twice every week using a vernier caliper for calculating the tumor volume, and the calculation formula was: volume=0.5×long diameter×[…].
The T/C value was calculated from the tumor volume, where T is the mean relative tumor volume (RTV) of each treatment group and C is the mean RTV of the control group. RTV is the ratio of tumor volume after the treatment to that before the treatment. Tumor growth inhibition (TGI, %)=(1−T/C)×100%.
Inter-group statistical analysis was performed on tumor volume using IBM SPSS Statistics 22.0 software and mixed linear model analysis. Inter-group statistical analysis was performed on tumor weight using One-Way ANOVA analysis, with p<0.05 indicating significant differences.

[3] = system: BRCA-mutant and HER2-negative advanced breast cancer; details: cited from earlier work
[4] = patients receiving olaparib monotherapy

water solubility relative to olaparib (Water solubility): 350 times
Compound: CNCc1ccc(-c2cc3cc(F)cc(C(N)=O)c3o2)cc1.Cl [Mefuparib hydrochloride, mefuparib hydrochloride]
percentage median of hCD45 cells in peripheral blood compared with the control group [1]: higher than that in the control group
water solubility [2]: > 35 mg/mL
Tumor growth inhibition (%) (MDA-MB-436 tumor cells; hydrochloride): 54%
Tumor growth inhibition (%) (MDA-MB-436 tumor cells; listed as mefuparib hydrochloride, hydrochloride): 54%
Tumor volume, Grouping (PG-D0) (MDA-MB-436 tumor cells): 93 ± 6 mm^3
Tumor volume, Administration (PG-D24) (MDA-MB-436 tumor cells): 761 ± 130 mm^3

Compound: O=C(c1cc(Cc2n[nH]c(=O)c3ccccc23)ccc1F)N1CCN(C(=O)C2CC2)CC1 [olaparib]
grade 3 adverse event: anemia ([3]; associated with olaparib): 12%
grade 3 adverse event: neutropenia ([3]; associated with olaparib): 6%
median PFS [3, 4]: 7.0 months
response rate [3, 4]: 59.9%

Compound: durvalumab
grade 3 adverse event: pancreatitis ([3]; associated with durvalumab): 6%

Compound: toripalimab [Tuoyi PD-1 monoclonal antibody injection]
percentage median of hCD45 cells in peripheral blood compared with the control group [1]: higher than that in the control group
Tumor growth inhibition (%) (MDA-MB-436 tumor cells): 29%
Tumor volume, Grouping (PG-D0) (MDA-MB-436 tumor cells): 94 ± 7 mm^3
Tumor volume, Administration (PG-D24) (MDA-MB-436 tumor cells): 1256 ± 252 mm^3
